Data published in patent US6737383B1, “Herbicidal oxadiazolidines” (priority 1999, dated 2004).

Assays:
[1] = system: surinam grass; assay: Test B pre/postemergence surinam grass; assay type: in vivo, Brachiaria decumbens
In short: (§1)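 Response is a visual 0-to-10 score relative to untreated plants, where 0 means no effect and 10 means complete control, taken twelve to sixteen days after application. Treatments went onto soil at planting and onto foliage of 1- to 4-leaf plants, using a surfactant-containing non-phytotoxic solvent.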

[2] = system: morningglory; assay: Test B pre/postemergence morningglory; assay type: in vivo, Ipomoea hederacea
In short: as §1

[3] = system: bedstraw; assay: Test B pre/postemergence bedstraw; assay type: in vivo, Galium aparine
In short: as §1

[4] = system: sugar beet; assay: Test B pre/postemergence sugar beet; assay type: in vivo, Beta vulgaris
In short: as §1

[5] = system: purple nutsedge; assay: Test B pre/postemergence purple nutsedge; assay type: in vivo, Cyperus rotundus
In short: as §1

[6] = system: soybean; assay: Test B pre/postemergence soybean; assay type: in vivo, Glycine max
In short: as §1

[7] = system: rape; assay: Test B pre/postemergence rape; assay type: in vivo, Brassica napus
In short: as §1

[8] = system: corn; assay: Test B pre/postemergence corn; assay type: in vivo, Zea mays
In short: as §1

[9] = system: giant foxtail; assay: Test B pre/postemergence giant foxtail; assay type: in vivo, Setaria faberii
In short: as §1

[10] = system: velvetleaf; assay: Test B pre/postemergence velvetleaf; assay type: in vivo, Abutilon theophrasti
In short: as §1

[11] = system: duck salad; assay: Test B flood test duck salad; assay type: in vivo, Heteranthera limosa
In short: (§2)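 Flood test on plants grown to the 2-leaf stage; treated plants kept in greenhouse twelve to sixteen days, then visually rated against controls on a 0 (no effect) to 10 (complete control) scale.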

[12] = system: pigweed; assay: Test B pre/postemergence pigweed; assay type: in vivo, Amaranthus retroflexus
In short: as §1

[13] = system: blackgrass; assay: Test B pre/postemergence blackgrass; assay type: in vivo, Alopecurus myosuroides
In short: as §1

[14] = system: smallflower flatsedge; assay: Test B flood test smallflower flatsedge; assay type: in vivo, Cyperus difformis
In short: as §2

[15] = system: bamyardgrass; assay: Test B flood test barnyardgrass; assay type: in vivo, Echinochloa crus-galli
In short: as §2

[16] = system: rice; assay: Test B flood test rice; assay type: in vivo, Oryza sativa
In short: as §2

[17] = Postemergence, Rate 62 g/ha, scale 0 to 10, 0 is no effect, 10 is complete control
[18] = Postemergence, Rate 250 g/ha, scale 0 to 10, 0 no effect, 10 complete control
[19] = Preemergence, Rate 62 g/ha, scale 0 to 10, 0 is no effect, 10 is complete control
[20] = Preemergence, Rate 125 g/ha, scale 0 to 10 (0 no effect, 10 complete control)
[21] = Preemergence, Rate 250 g/ha, scale of 0 to 10 where 0 is no effect and 10 is complete control
[22] = Preemergence, Rate 500 g/ha, scale 0 (no effect) to 10 (complete control)
[23] = Rate 125 g/ha, Postemergence, scale 0 to 10, 0 no effect, 10 complete control
[24] = Rate 500 g/ha, Postemergence, 0 to 10 scale (0 no effect, 10 complete control)
[25] = Rate 250 g/ha, headed Pre-emergence (flood test species), scale 0 to 10 (0 no effect, 10 complete control)
[26] = Rate 500 g/ha, Postemergence section of Table B, 0 to 10 scale (0 no effect, 10 complete control)
[27] = Rate 500 g/ha, headed Pre-emergence (flood test species), scale 0 to 10 (0 no effect, 10 complete control)
[28] = Rate 1000 g/ha, Pre-emergence (as headed), scale 0 to 10
[29] = Rate 2000 g/ha, Pre-emergence (as headed), scale 0 to 10
[30] = flood test, listed under Postemergence, Rate 250 g/ha, scale 0 to 10, 0 no effect, 10 complete control
[31] = Rate 125 g/ha, Postemergence section (flood test species), scale 0 to 10, 0 no effect, 10 complete control

Cc1cccc(C)c1-n1c(=O)on(C(=O)N(c2ccccc2)C(C)C)c1=O [Compound 46]
3: B. signalgrass plant response rating [1, 22] | Plant response rating, Sugarbeets [4, 20] | Plant response rating, Sugarbeets [4, 21]
0: B. signalgrass plant response rating [1, 17] | B. signalgrass plant response rating [1, 18] | Plant response rating, B. signalgrass [1, 19] | Plant response rating, B. signalgrass [1, 20] | B. signalgrass plant response rating [1, 23] | B. signalgrass plant response rating [1, 24] | Morningglory plant response rating [2, 17] | Plant response rating, Morningglory [2, 19] | Plant response rating, Morningglory [2, 20] | Plant response rating, Morningglory [2, 21] | Morningglory plant response rating [2, 22] | Morningglory plant response rating [2, 23] | Bedstraw plant response rating [3, 17] | Plant response rating, Bedstraw [3, 19] | Plant response rating, Bedstraw [3, 20] | Plant response rating, Bedstraw [3, 21] | Bedstraw plant response rating [3, 22] | Bedstraw plant response rating [3, 23] | Sugarbeets plant response rating [4, 17] | Sugarbeets plant response rating [4, 18] | Plant response rating, Sugarbeets [4, 19] | Sugarbeets plant response rating [4, 23] | Nutsedge plant response rating [5, 17] | Nutsedge plant response rating [5, 18] | Plant response rating, Nutsedge [5, 19] | Plant response rating, Nutsedge [5, 20] | Plant response rating, Nutsedge [5, 21] | Nutsedge plant response rating [5, 22] | Nutsedge plant response rating [5, 23] | Nutsedge plant response rating [5, 24] | Plant response rating, Soybean [6, 19] | Plant response rating, Soybean [6, 20] | Plant response rating, Soybean [6, 21] | Soybean plant response rating [6, 22] | Rape plant response rating [7, 17] | Rape plant response rating [7, 18] | Plant response rating, Rape [7, 19] | Plant response rating, Rape [7, 20] | Plant response rating, Rape [7, 21] | Rape plant response rating [7, 22] | Rape plant response rating [7, 23] | Rape plant response rating [7, 24] | Corn plant response rating [8, 17] | Corn plant response rating [8, 18] | Plant response rating, Corn [8, 19] | Plant response rating, Corn [8, 20] | Plant response rating, Corn [8, 21] | Corn plant response rating [8, 22] | Corn plant response rating [8, 23] | Corn plant response rating [8, 24] | Giant foxtail plant response rating [9, 17] | Velvetleaf plant response rating [10, 17] | Velvetleaf plant response rating [10, 18] | Plant response rating, Velvetleaf [10, 19] | Plant response rating, Velvetleaf [10, 20] | Plant response rating, Velvetleaf [10, 21] | Velvetleaf plant response rating [10, 23] | Ducksalad plant response rating [11, 17] | Ducksalad plant response rating [11, 25] | Ducksalad plant response rating [11, 26] | Plant response rating, Ducksalad [11, 27] | Ducksalad plant response rating [11, 30] | Redroot pigweed plant response rating [12, 17] | Redroot pigweed plant response rating [12, 18] | Plant response rating, Redroot pigweed [12, 19] | Plant response rating, Redroot pigweed [12, 20] | Redroot pigweed plant response rating [12, 23] | Redroot pigweed plant response rating [12, 24] | Blackgrass plant response rating [13, 17] | Plant response rating, Blackgrass [13, 19] | Plant response rating, Blackgrass [13, 20] | Blackgrass plant response rating [13, 23] | S. Flatsedge plant response rating [14, 17] | S. Flatsedge plant response rating ([14]; Pre-emergence, Rate 1000 g/ha, scale 0 to 10 (0 no effect, 10 complete control)) | S. Flatsedge plant response rating [14, 31] | S. Flatsedge plant response rating [14, 25] | Plant response rating, S. Flatsedge [14, 27] | S. Flatsedge plant response rating [14, 30] | Barnyardgrass plant response rating [15, 17] | Barnyardgrass plant response rating [15, 31] | Barnyardgrass plant response rating [15, 25] | Barnyardgrass plant response rating [15, 26] | Plant response rating, Barnyardgrass [15, 27] | Barnyardgrass plant response rating [15, 28] | Barnyardgrass plant response rating [15, 30] | Rice plant response rating [16, 17] | Rice plant response rating [16, 31] | Rice plant response rating [16, 25] | Rice plant response rating [16, 26] | Plant response rating, Rice [16, 27] | Rice plant response rating [16, 28] | Rice plant response rating [16, 29] | Rice plant response rating [16, 30]
1: Morningglory plant response rating [2, 18] | Soybean plant response rating [6, 17] | Soybean plant response rating [6, 18] | Soybean plant response rating [6, 23] | Giant foxtail plant response rating [9, 18] | Giant foxtail plant response rating [9, 23]
10: Plant response rating, Giant foxtail [9, 19] | Plant response rating, Giant foxtail [9, 20] | Plant response rating, Giant foxtail [9, 21] | Giant foxtail plant response rating [9, 22]
2: Plant response rating, B. signalgrass [1, 21] | Morningglory plant response rating [2, 24] | Velvetleaf plant response rating [10, 22] | Ducksalad plant response rating [11, 28] | Ducksalad plant response rating [11, 29] | Plant response rating, Blackgrass [13, 21]
6: Sugarbeets plant response rating [4, 22] | Giant foxtail plant response rating [9, 24] | Plant response rating, Redroot pigweed [12, 21] | Blackgrass plant response rating [13, 18] | Blackgrass plant response rating [13, 24]
7: Blackgrass plant response rating [13, 22]
8: S. Flatsedge plant response rating [14, 29]
9: Redroot pigweed plant response rating [12, 22] | Barnyardgrass plant response rating ([15]; Rate 2000 g/ha, Pre-emergence (as headed), scale 0 to 10, 0 no effect, 10 complete control)
